Reference: ChEMBL document CHEMBL5120752, “Galangin 3-benzyl-5-methylether derivatives function as an adiponectin synthesis-promoting peroxisome proliferator-activated receptor γ partial agonist” (Bioorg Med Chem, 2022)
Activity calls are given as the source filed them. No cut-off for these calls is given here.

Legend:
[1] = tested on: Mesenchymal stem cells; assay: Upregulation of adiponectin mRNA expression in human BMMSC cells at 10 uM measured after 3 days by qRT-PCR analysis; assay type: functional, cell-based; conditions: time 3.0 day
[2] = tested on: Mesenchymal stem cells; assay: Upregulation of FABP4 mRNA expression in human BMMSC cells at 10 uM measured after 3 days by qRT-PCR analysis; assay type: functional, cell-based; conditions: time 3.0 day
[3] = tested on: Mesenchymal stem cells; assay: Induction of adiponectin synthesis in human differentiated BMMSC cells assessed as lipid accumulation at 10 uM measured after 5 days in the presence of IDX induction medium by Oil red O staining based inverted phase contrast microscope analysis; assay type: functional, cell-based; conditions: time 5.0 day
[4] = biological target: Estrogen receptor beta (Homo sapiens) (UniProt Q92731); assay: Binding affinity to ERbeta (unknown origin) at 10 uM by Lanthascreen TR-FRET assay relative to control
[5] = tested on: Mesenchymal stem cells; assay: Upregulation of PPARgamma mRNA expression in human BMMSC cells at 10 uM measured after 3 days by qRT-PCR analysis; assay type: functional, cell-based; conditions: time 3.0 day
[6] = biological target: T1, Peroxisome proliferator-activated receptor gamma (Homo sapiens, UniProt P37231); assay: Binding affinity to PPARgamma (unknown origin) assessed as inhibition constant by Lanthascreen TR-FRET assay relative to control
T1 sequence (P37231 whole entry): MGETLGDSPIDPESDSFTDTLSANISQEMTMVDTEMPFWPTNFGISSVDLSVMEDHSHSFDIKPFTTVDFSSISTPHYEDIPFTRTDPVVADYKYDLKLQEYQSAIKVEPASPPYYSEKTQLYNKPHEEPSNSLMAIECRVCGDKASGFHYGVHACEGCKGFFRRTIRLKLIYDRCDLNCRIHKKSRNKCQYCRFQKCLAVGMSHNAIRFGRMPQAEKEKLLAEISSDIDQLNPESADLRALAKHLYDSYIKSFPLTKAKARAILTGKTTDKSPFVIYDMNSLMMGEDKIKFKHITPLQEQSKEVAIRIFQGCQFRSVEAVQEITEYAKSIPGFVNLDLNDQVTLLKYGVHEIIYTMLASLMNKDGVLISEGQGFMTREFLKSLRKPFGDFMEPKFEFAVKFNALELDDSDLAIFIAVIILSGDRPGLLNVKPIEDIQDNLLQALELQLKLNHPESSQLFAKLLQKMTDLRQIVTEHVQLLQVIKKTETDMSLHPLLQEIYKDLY

[7] = tested on: Mesenchymal stem cells; assay: Induction of adiponectin synthesis in human differentiated BMMSC cells at 10 uM measured after 5 days in the presence of IDX induction medium by ELISA; assay type: functional, cell-based; conditions: time 5.0 day
[8] = tested on: Mesenchymal stem cells; assay: Induction of adiponectin synthesis in human differentiated BMMSC cells assessed as fold increase in adiponectin level at 10 uM measured after 5 days in the presence of IDX induction medium by ELISA; assay type: functional; conditions: time 5 day
[9] = tested on: Mesenchymal stem cells; assay: Induction of adiponectin synthesis in human differentiated BMMSC cells measured after 5 days in the presence of IDX induction medium by ELISA; assay type: functional, cell-based; conditions: 120 h

Sequence of Estrogen receptor beta (Homo sapiens) (Q92731 whole entry): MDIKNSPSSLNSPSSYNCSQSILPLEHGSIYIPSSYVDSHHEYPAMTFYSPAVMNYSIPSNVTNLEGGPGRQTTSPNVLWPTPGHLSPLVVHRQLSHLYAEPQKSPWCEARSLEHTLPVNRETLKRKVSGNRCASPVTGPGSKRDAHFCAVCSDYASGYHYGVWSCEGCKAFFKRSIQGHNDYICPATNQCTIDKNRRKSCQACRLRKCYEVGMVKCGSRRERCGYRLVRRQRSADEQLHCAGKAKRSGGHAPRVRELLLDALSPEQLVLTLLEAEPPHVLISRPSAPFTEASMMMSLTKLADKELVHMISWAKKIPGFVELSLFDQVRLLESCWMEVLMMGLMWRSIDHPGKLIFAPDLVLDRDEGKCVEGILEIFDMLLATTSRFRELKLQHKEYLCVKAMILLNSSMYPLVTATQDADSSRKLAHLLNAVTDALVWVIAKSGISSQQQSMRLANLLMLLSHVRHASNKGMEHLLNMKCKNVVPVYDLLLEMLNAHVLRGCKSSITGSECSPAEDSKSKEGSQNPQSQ

`O=c1c(O)c(-c2ccccc2)oc2cc(O)cc(O)c12` [GALANGIN] was tested, and the Activity [1] was “Active”, the Activity [2] was “Active” and the Activity [3] was “Active”. The Activity [4] was 79.4%, the Activity [5] was “Active” and the Ki [6] was 5.6 µM. For the same compound, the Activity [7] was “Active”.
With `COc1cc(O)c2c(=O)c(OCc3ccccc3)c(-c3ccccc3)oc2c1` the Activity [7] was “Active”.
With `COc1cc(OC(=O)c2ccccc2)cc2oc(-c3ccccc3)c(O)c(=O)c12` the Activity [7] was “Active”.
`COc1cc(OC(=O)c2ccccc2)cc2oc(-c3ccccc3)c(OCc3ccccc3)c(=O)c12` was tested, and the “fold change (FC)” value [8] was 2.76 and the Activity [7] was “Active”.
With `COc1cc(OC)c2c(=O)c(OCc3ccccc3)c(-c3ccccc3)oc2c1` the Activity [1] was “Active”, the Activity [2] was “Active” and the Activity [3] was “Active”. The Activity [5] was “Active” and the Activity [7] was “Active”.
With `COc1cc(O)cc2oc(-c3ccccc3)c(OCc3ccccc3)c(=O)c12` the Activity [1] was “Active”, the Activity [2] was “Active” and the Activity [3] was “Active”. For the same compound, the Activity [5] was “Active”, the EC50 [9] was 14.9 µM and the “fold change (FC)” value [8] was 2.88. For the same compound, the Activity [7] was “Active”.
